{"source": "patent US7402314B2", "about": "“In vivo activation of tumor-specific cytotoxic T cells” (The Scripps Research Institute, priority 1995, dated 2008)", "key": {"[1]": {"tested_on": "NCI.H1355", "test": "Cytotoxicity assay, killing of tumors (Table 7)", "type": "cell-based, human", "conditions": "NCI.H1355, Lung, A2 +", "description": "(§1) One hundred and six (106) target cells were incubated at 37° C. with […] of sodium ^51Cr chromate for 90 minutes in the presence or absence of specific peptide. Cells were washed three times and resuspended in 5% RPMI. For the assay, 104 ^51Cr-labeled target cells were incubated with different concentrations of effector cells in a final volume of […] in U-bottomed 96-well plates. Supernatants were removed after 4-7 hrs at 37° C., and the percent specific lysis was determined by the following formula: […]\n(§2) Tumor cells were preincubated for 24 hours prior to the assay in media supplemented with γ-interferon (γ-IFN, 20 ng/ml) plus tumor necrosis factor-α (TNF-α, 3 ng/ml). It is known that such pretreatment of tumor cells increases the expression of MHC I and adhesion molecules such as ICAM I on the surface of the cell thus enhancing their sensitivity to lysis by CTL. (See, e.g., Fisk, et al., Lympho. & Cylokine Res. 13: 125-131 (1994); Fady, et al., Cancer Immunol. Immunother. 37: 329-336 (1993).)"}, "[2]": {"tested_on": "ST486", "test": "Cytotoxicity assay, killing of tumors (Table 7)", "type": "cell-based, human", "conditions": "ST486, Lymphoma, A2 +, Her-2 −", "description": "as §1, §2"}, "[3]": {"tested_on": "MDA.MB435", "test": "Cytotoxicity assay, killing of tumors (Table 7)", "type": "cell-based, human", "conditions": "MDA.MB435, Breast, A2 −, Her-2 +", "description": "as §1, §2"}, "[4]": {"tested_on": "OVCAR-5", "test": "Cytotoxicity assay, killing of tumors (Table 7)", "type": "cell-based, human", "conditions": "OVCAR-5, Ovarian, A2 +, Her-2 +", "description": "as §1, §2"}, "[5]": {"tested_on": "JY", "test": "Cytotoxicity assay, killing of tumors (Table 7)", "type": "cell-based, human", "conditions": "JY, Lymphoma, A2 +, Her-2 −", "description": "as §1, §2"}, "[6]": {"tested_on": "SAOS.175", "test": "Cytotoxicity assay, killing of tumors (Table 7)", "type": "cell-based, human", "conditions": "SAOS.175, Osteosarcoma, A2 +, Her-2 +", "description": "as §1, §2"}, "[7]": {"tested_on": "Hep-G2", "test": "Cytotoxicity assay, killing of tumors (Table 7)", "type": "cell-based, human", "conditions": "Hep-G2, Hepatoma, A2 +, Her-2 +", "description": "as §1, §2"}, "[8]": {"tested_on": "LG-2", "test": "Cytotoxicity assay, killing of tumors (Table 7)", "type": "cell-based, human", "conditions": "LG-2, EBV-trans., A2 +, Her-2 −", "description": "as §1, §2"}, "[9]": {"tested_on": "SKMEL-5", "test": "Cytotoxicity assay, killing of tumors (Table 7)", "type": "cell-based, human", "conditions": "SKMEL-5, Melanoma, A2 +, Her-2 +", "description": "as §1, §2"}, "[10]": {"tested_on": "U2-OS", "test": "Cytotoxicity assay, killing of tumors (Table 7)", "type": "cell-based, human", "conditions": "U2-OS, Osteosarcoma, A2 +, Her-2 +", "description": "as §1, §2"}, "[11]": {"tested_on": "SW480", "test": "Cytotoxicity assay, killing of tumors (Table 7)", "type": "cell-based, human", "conditions": "SW480, Colon, A2 +, Her-2 +", "description": "as §1, §2"}, "[12]": {"tested_on": "MCF-7", "test": "Cytotoxicity assay, killing of tumors (Table 7)", "type": "cell-based, human", "conditions": "MCF-7, Breast, A2 +, Her-2 +", "description": "as §1, §2"}, "[13]": {"tested_on": "U87G", "test": "Cytotoxicity assay, killing of tumors (Table 7)", "type": "cell-based, human", "conditions": "U87G, Glioblastoma, A2 +, Her-2 −", "description": "as §1, §2"}, "[14]": {"tested_on": "T98G", "test": "Cytotoxicity assay, killing of tumors (Table 7)", "type": "cell-based, human", "conditions": "T98G, Glioblastoma, A2 +, Her-2 +", "description": "as §1, §2"}, "[15]": {"tested_on": "MDA.M8231", "test": "Cytotoxicity assay, killing of tumors (Table 7)", "type": "cell-based, human", "conditions": "MDA.M8231, Breast, A2 +", "description": "as §1, §2"}, "[16]": {"tested_on": "CASKI", "test": "Cytotoxicity assay, killing of tumors (Table 7)", "type": "cell-based, human", "conditions": "CASKI, Cervix, A2 +, Her-2 +", "description": "as §1, §2"}, "[17]": {"tested_on": "SV80", "test": "Cytotoxicity assay, killing of tumors (Table 7)", "type": "cell-based, human", "conditions": "SV80, Fibroblast, A2 +, Her-2 −", "description": "as §1, §2"}, "[18]": {"tested_on": "MALME-3M", "test": "Cytotoxicity assay, killing of tumors (Table 7)", "type": "cell-based, human", "conditions": "MALME-3M, Melanoma, A2 +, Her-2 +", "description": "as §1, §2"}, "[19]": {"tested_on": "BT549", "test": "Cytotoxicity assay, killing of tumors (Table 7)", "type": "cell-based, human", "conditions": "BT549, Breast, A2 +", "description": "as §1, §2"}, "[20]": {"tested_on": "peptide-pulsed T2 targets", "type": "cell-based, human"}, "[21]": {"molecular_target": "HLA-A2.1 (Homo sapiens, UniProt P04439, D140Y/D185E/D98H/E176V/E277Q/G131W/G231S/I119V/I121R/I166T/I218V/L300P/L318F/N151K/N90K/P208A/P217A/Q86G/Q94H/R138H/R169H/T345S)", "test": "Competition assay of peptide binding to HLA-A2.1 (inhibition of M1 58-66 binding, clone 12 lysis of EA2 targets)"}, "[22]": {"tested_on": "A2.1/K^b-Tg mice", "test": "Peptide priming of A2.1/K^b-Tg mice, lytic activity of peptide-specific CTL", "type": "in vivo", "set-up": "Lytic Activity by Peptide-Specific CTL After Priming of A2.1/K^b-Tg Mice [Specific ^51Cr release (%)]: concentration or dose not given beside the values"}, "[23]": {"conditions": "+ CYT (γ-IFN plus TNF-α, 24 hours)"}}, "data": [{"sequence": "VMAGVGSPYV [Peptide H7]", "values": [{"measurement": "Killing of Tumors Expressing Her-2/neu (percent specific lysis)", "setting": "[1]; [23]", "value": 62, "unit": "%"}, {"measurement": "Killing of Tumors Expressing Her-2/neu (percent specific lysis)", "setting": "[1]; no cytokines", "value": 13, "unit": "%"}, {"measurement": "Killing of Tumors Expressing Her-2/neu (percent specific lysis)", "setting": "[2]; [23]", "value": 8, "unit": "%"}, {"measurement": "Killing of Tumors Expressing Her-2/neu (percent specific lysis)", "setting": "[2]; no cytokines", "value": 5, "unit": "%"}, {"measurement": "Killing of Tumors Expressing Her-2/neu (percent specific lysis)", "setting": "[3]; [23]", "value": 1, "unit": "%"}, {"measurement": "Killing of Tumors Expressing Her-2/neu (percent specific lysis)", "setting": "[3]; no cytokines", "value": 1, "unit": "%"}, {"measurement": "Killing of Tumors Expressing Her-2/neu (percent specific lysis)", "setting": "[4]; [23]", "value": 23, "unit": "%"}, {"measurement": "Killing of Tumors Expressing Her-2/neu (percent specific lysis)", "setting": "[4]; no cytokines", "value": 13, "unit": "%"}, {"measurement": "Killing of Tumors Expressing Her-2/neu (percent specific lysis)", "setting": "[5]; [23]", "value": 2, "unit": "%"}, {"measurement": "Killing of Tumors Expressing Her-2/neu (percent specific lysis)", "setting": "[5]; no cytokines", "value": 4, "unit": "%"}, {"measurement": "Killing of Tumors Expressing Her-2/neu (percent specific lysis)", "setting": "[6]; [23]", "value": 35, "unit": "%"}, {"measurement": "Killing of Tumors Expressing Her-2/neu (percent specific lysis)", "setting": "[6]; no cytokines", "value": 27, "unit": "%"}, {"measurement": "Killing of Tumors Expressing Her-2/neu (percent specific lysis)", "setting": "[7]; [23]", "value": 29, "unit": "%"}, {"measurement": "Killing of Tumors Expressing Her-2/neu (percent specific lysis)", "setting": "[7]; no cytokines", "value": 4, "unit": "%"}, {"measurement": "Killing of Tumors Expressing Her-2/neu (percent specific lysis)", "setting": "[8]; [23]", "value": 3, "unit": "%"}, {"measurement": "Killing of Tumors Expressing Her-2/neu (percent specific lysis)", "setting": "[8]; no cytokines", "value": 1, "unit": "%"}, {"measurement": "Killing of Tumors Expressing Her-2/neu (percent specific lysis)", "setting": "[9]; [23]", "value": 40, "unit": "%"}, {"measurement": "Killing of Tumors Expressing Her-2/neu (percent specific lysis)", "setting": "[9]; no cytokines", "value": 16, "unit": "%"}, {"measurement": "Killing of Tumors Expressing Her-2/neu (percent specific lysis)", "setting": "[10]; [23]", "value": 62, "unit": "%"}, {"measurement": "Killing of Tumors Expressing Her-2/neu (percent specific lysis)", "setting": "[10]; no cytokines", "value": 30, "unit": "%"}, {"measurement": "Killing of Tumors Expressing Her-2/neu (percent specific lysis)", "setting": "[11]; [23]", "value": 17, "unit": "%"}, {"measurement": "Killing of Tumors Expressing Her-2/neu (percent specific lysis)", "setting": "[11]; no cytokines", "value": 2, "unit": "%"}, {"measurement": "Killing of Tumors Expressing Her-2/neu (percent specific lysis)", "setting": "[12]; [23]", "value": 40, "unit": "%"}, {"measurement": "Killing of Tumors Expressing Her-2/neu (percent specific lysis)", "setting": "[12]; no cytokines", "value": 7, "unit": "%"}, {"measurement": "Killing of Tumors Expressing Her-2/neu (percent specific lysis)", "setting": "[13]; [23]", "value": 1, "unit": "%"}, {"measurement": "Killing of Tumors Expressing Her-2/neu (percent specific lysis)", "setting": "[13]; no cytokines", "value": 1, "unit": "%"}, {"measurement": "Killing of Tumors Expressing Her-2/neu (percent specific lysis)", "setting": "[14]; [23]", "value": 93, "unit": "%"}, {"measurement": "Killing of Tumors Expressing Her-2/neu (percent specific lysis)", "setting": "[14]; no cytokines", "value": 29, "unit": "%"}, {"measurement": "Killing of Tumors Expressing Her-2/neu (percent specific lysis)", "setting": "[15]; [23]", "value": 89, "unit": "%"}, {"measurement": "Killing of Tumors Expressing Her-2/neu (percent specific lysis)", "setting": "[15]; no cytokines", "value": 26, "unit": "%"}, {"measurement": "Killing of Tumors Expressing Her-2/neu (percent specific lysis)", "setting": "[16]; [23]", "value": 20, "unit": "%"}, {"measurement": "Killing of Tumors Expressing Her-2/neu (percent specific lysis)", "setting": "[16]; no cytokines", "value": 9, "unit": "%"}, {"measurement": "Killing of Tumors Expressing Her-2/neu (percent specific lysis)", "setting": "[17]; [23]", "value": 2, "unit": "%"}, {"measurement": "Killing of Tumors Expressing Her-2/neu (percent specific lysis)", "setting": "[17]; no cytokines", "value": 2, "unit": "%"}, {"measurement": "Killing of Tumors Expressing Her-2/neu (percent specific lysis)", "setting": "[18]; [23]", "value": 14, "unit": "%"}, {"measurement": "Killing of Tumors Expressing Her-2/neu (percent specific lysis)", "setting": "[18]; no cytokines", "value": 4, "unit": "%"}, {"measurement": "Killing of Tumors Expressing Her-2/neu (percent specific lysis)", "setting": "[19]; [23]", "value": 36, "unit": "%"}, {"measurement": "Killing of Tumors Expressing Her-2/neu (percent specific lysis)", "setting": "[19]; no cytokines", "value": 2, "unit": "%"}]}, {"sequence": "STPPPGTRV [hu-wt-p53 149-157]", "values": [{"measurement": "peptide concentration required for equivalent lysis of T2 targets by A2 vs. A2.1/K^b derived CTL (fold less)", "setting": "[20]", "value": 3, "unit": "fold"}, {"measurement": "A2.1-binding activity / affinity for the presenting MHC class I molecule (in words)", "setting": "[21]", "value": "intermediate affinity"}, {"measurement": "Lytic Activity by Peptide-Specific CTL After Priming of A2.1/K^b-Tg Mice [Specific ^51Cr release (%)]", "setting": "[22]; E:T ratio of 60:1, peptide-pulsed T2A2/K^b targets, highest of at least three individual mice", "value": 91, "unit": "%"}, {"measurement": "A2.1/K^b-restricted peptide-specific CTL response of A2.1/K^b-Tg mice (in words)", "setting": "[22]; mouse, in vivo", "value": "detectable"}]}]}
